Laboratory results: ChEMBL document CHEMBL1201862, “PubChem BioAssay data set” (2004)
The source made the active and inactive calls.

Columns and labels:
CHO-K1 = test: (§1) Counterscreen for antagonists of the orexin 1 receptor (OX1R; HCRTR1): Homogeneous time resolved fluorescence (HTRF)-based cell-based dose response assay to identify antagonists of the parental CHO-K1 cell line. [Related pubchem assays (depositor defined):AID434989, AID435008, AID463079, AID485270, AID492963, AID492964, AID492965, AID493232, AID504699, AID504701]; assay type: functional; settings: Cricetulus griseus
Orexin receptor type 2 [1] = biological target: T1, Orexin receptor type 2 (Homo sapiens, UniProt O43614); test: Counterscreen assay for antagonists of the orexin 1 receptor (OX1R; HCRTR1): Homogeneous Time Resolved Fluorescence (HTRF)-based cell-based dose response assay for antagonists of the orexin 2 receptor (OX2R; HCRTR2), run by assay provider.; assay type: functional
T1 sequence (O43614 whole entry): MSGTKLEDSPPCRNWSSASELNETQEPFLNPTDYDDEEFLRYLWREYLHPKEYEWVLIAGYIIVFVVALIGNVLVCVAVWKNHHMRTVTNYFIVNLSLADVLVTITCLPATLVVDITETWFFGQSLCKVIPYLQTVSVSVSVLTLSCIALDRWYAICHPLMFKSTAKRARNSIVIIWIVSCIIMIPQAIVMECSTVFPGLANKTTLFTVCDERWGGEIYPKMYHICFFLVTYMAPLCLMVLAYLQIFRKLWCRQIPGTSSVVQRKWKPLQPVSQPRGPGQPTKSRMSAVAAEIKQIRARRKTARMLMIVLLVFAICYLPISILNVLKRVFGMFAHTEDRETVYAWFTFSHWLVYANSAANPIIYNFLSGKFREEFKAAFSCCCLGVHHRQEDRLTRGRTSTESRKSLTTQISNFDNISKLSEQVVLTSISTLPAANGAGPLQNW

Orexin receptor type 2 [2] = biological target: T1, Orexin receptor type 2; test: Counterscreen assay for antagonists of the orexin 1 receptor (OX1R; HCRTR1): Fluorescence-based cell-based dose response assay for antagonists of the orexin 2 receptor (OX2R; HCRTR2), run by assay provider.; assay type: functional
[3] = biological target: T2, Orexin/Hypocretin receptor type 1 (Homo sapiens, UniProt O43613); test: Homogeneous Time Resolved Fluorescence (HTRF)-based cell-based high throughput dose response assay for antagonists of the orexin 1 receptor (OX1R; HCRTR1). [Related pubchem assays (depositor defined):AID434989, AID435008, AID463079, AID485270, AID492963, AID492964, AID492965, AID493232, AID504717, AID504718]; assay type: functional
T2 sequence (O43613 whole entry): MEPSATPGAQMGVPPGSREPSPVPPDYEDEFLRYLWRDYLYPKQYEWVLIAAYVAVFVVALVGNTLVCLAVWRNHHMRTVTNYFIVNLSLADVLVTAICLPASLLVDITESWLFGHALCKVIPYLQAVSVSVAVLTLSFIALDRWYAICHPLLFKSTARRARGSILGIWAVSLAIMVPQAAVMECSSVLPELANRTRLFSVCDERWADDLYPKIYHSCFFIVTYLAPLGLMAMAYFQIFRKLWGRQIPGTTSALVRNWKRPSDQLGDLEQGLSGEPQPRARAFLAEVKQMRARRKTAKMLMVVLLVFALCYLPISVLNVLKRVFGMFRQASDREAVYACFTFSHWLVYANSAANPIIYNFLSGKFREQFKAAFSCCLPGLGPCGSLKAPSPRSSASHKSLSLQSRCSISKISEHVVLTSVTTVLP

[4] = biological target: T2, Orexin/Hypocretin receptor type 1; test: Fluorescence-based cell-based high throughput dose response assay for antagonists of the orexin 1 receptor (OX1R; HCRTR1). [Related pubchem assays (depositor defined):AID434989, AID435008, AID463079, AID485270, AID492963, AID492964, AID492965, AID493232, AID504717, AID504718]; assay type: functional
[5] = as §1, with “Fluorescence-based” for “Homogeneous time resolved fluorescence (HTRF)-based”, “cell-based high throughput” for “cell-based”, “CHO” for “CHO-K1”; assay type: functional
[6] = A Cell Based Secondary Assay to Explore Cytotoxicity in HepG2 Cells of Compounds that Modulate Mycobacterium tuberculosis in Media Containing Glycerol versus Media without Glycerol (2).; assay type: functional
[7] = Vero cell cytotoxicity, cytotoxicity control for M. tuberculosis inhibitor project, purified and synthesized samples, set 3 (AID 504684); assay type: functional
[8] = microbe, parasite or virus in culture; assay type: functional; settings: Mycobacterium tuberculosis
cells = assay type: functional
[9] = A Cell Based Secondary Assay to Explore Cytotoxicity in THP-1 Cells of Compounds that Modulate Mycobacterium tuberculosis in Media Containing Glycerol versus Media without Glycerol (2).; assay type: functional
[10] = control 3'UTR Renilla luciferase suppression, dose response, counter-screen for Shn3 inhibitor project, cell-based, Clone20-Shn3RL, cherry-picked (AID 624133); assay type: functional
[11] = Vero E6 cell cytotoxicity, dose response, cytotoxicity control for non-replicating M. tuberculosis project, secondary assay (AID 492998); assay type: functional, VeroE6; settings: Vero C1008
[12] = THP-1 cell cytotoxicity, dose response, cytotoxicity control for non-replicating M. tuberculosis project (AID 489025); assay type: functional
[13] = Shn3 3'UTR reporter inhibitors, dose response, cell-based, Clone20 osteoblasts, firefly luciferase, cherry-picked (AID 624132); assay type: functional;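 also: firefly luciferase luminescence from reporter carrying the Shn3 3'UTR in osteoblasts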
Caspase-7 = biological target: T3, Caspase-7 (Homo sapiens, UniProt P55210); test: procaspase-7 activators, dose response, dual procaspase-3/-7 activator project, biochemical, absorbance, human (AID 504330)
T3 sequence (P55210 whole entry): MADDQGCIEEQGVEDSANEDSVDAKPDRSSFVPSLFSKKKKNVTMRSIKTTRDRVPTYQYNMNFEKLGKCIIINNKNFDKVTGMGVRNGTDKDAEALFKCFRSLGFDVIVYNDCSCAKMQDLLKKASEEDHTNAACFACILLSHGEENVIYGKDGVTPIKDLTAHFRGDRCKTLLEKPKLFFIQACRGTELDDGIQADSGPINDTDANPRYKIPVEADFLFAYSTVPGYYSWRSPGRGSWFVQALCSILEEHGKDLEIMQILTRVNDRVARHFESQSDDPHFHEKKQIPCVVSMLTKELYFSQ

Beta Lactamase = Beta Lactamase (Pseudomonas aeruginosa, UniProt Q932Y6); test: beta-lactamase reporter inhibitor potency, dose response, artefact control for TLR9-MyD88 binding inhibitor project, BLA reporter cells, FRET fluorescence (AID 588341); assay type: cell-based;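 also: cell based assay in CHO-K1 cells stably expressing beta-lactamase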
Sequence of Beta Lactamase (Q932Y6 whole entry, the tested form may be a part): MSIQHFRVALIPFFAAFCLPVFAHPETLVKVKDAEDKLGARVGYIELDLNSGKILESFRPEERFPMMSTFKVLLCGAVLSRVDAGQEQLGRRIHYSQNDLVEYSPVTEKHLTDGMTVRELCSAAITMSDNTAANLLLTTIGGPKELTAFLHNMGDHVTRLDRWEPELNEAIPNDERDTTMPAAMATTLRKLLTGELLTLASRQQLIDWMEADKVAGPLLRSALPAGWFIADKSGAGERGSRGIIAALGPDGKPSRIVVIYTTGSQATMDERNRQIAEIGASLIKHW

CHO = test: cytotoxicity in TLR9-MyD88 CHO cells, dose response, cytotoxicity control for TLR9-MyD88 binding inhibitor project, cell-based, luminescence (AID 588339); assay type: functional, hamster; settings: Cricetulus griseus;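 also: CHO cells stably coexpressing TLR9 and MyD88 fusions from primary screen; compound exposure lasted 48 hours before viability readout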
Caspase-3 = biological target: T4, Caspase-3 (Homo sapiens, UniProt P42574); test: procaspase-3 activation potency of dual hits, dose response, counter-screen for dual procaspase-3/7 activator project, biochemical, absorbance, PC-3 D3A mutant (AID 504328)
T4 sequence (P42574 whole entry): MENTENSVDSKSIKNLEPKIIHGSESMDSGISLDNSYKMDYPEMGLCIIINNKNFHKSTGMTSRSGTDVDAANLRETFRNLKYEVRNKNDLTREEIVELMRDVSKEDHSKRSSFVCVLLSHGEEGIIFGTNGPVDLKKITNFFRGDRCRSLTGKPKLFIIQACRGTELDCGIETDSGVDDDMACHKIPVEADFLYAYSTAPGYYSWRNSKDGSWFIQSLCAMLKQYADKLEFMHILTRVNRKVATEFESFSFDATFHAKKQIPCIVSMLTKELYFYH

[14] = biological target: Cyclin-dependent kinase 5 (Homo sapiens, UniProt Q00535); assay type: functional;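 also: CDK5 measured as one member of a kinase profiling panel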
Sequence of Cyclin-dependent kinase 5 (Q00535 whole entry): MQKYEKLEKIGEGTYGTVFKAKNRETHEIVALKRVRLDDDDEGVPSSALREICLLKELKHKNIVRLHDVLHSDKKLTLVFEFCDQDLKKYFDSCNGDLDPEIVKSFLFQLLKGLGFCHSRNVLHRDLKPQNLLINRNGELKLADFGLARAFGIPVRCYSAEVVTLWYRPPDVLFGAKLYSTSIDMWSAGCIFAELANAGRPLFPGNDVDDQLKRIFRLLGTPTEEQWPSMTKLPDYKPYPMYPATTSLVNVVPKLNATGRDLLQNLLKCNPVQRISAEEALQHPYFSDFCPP

[15] = biological target: Serine/threonine-protein kinase TAO1 (Homo sapiens, UniProt Q7L7X3); assay type: functional
Sequence of Serine/threonine-protein kinase TAO1 (Q7L7X3 whole entry): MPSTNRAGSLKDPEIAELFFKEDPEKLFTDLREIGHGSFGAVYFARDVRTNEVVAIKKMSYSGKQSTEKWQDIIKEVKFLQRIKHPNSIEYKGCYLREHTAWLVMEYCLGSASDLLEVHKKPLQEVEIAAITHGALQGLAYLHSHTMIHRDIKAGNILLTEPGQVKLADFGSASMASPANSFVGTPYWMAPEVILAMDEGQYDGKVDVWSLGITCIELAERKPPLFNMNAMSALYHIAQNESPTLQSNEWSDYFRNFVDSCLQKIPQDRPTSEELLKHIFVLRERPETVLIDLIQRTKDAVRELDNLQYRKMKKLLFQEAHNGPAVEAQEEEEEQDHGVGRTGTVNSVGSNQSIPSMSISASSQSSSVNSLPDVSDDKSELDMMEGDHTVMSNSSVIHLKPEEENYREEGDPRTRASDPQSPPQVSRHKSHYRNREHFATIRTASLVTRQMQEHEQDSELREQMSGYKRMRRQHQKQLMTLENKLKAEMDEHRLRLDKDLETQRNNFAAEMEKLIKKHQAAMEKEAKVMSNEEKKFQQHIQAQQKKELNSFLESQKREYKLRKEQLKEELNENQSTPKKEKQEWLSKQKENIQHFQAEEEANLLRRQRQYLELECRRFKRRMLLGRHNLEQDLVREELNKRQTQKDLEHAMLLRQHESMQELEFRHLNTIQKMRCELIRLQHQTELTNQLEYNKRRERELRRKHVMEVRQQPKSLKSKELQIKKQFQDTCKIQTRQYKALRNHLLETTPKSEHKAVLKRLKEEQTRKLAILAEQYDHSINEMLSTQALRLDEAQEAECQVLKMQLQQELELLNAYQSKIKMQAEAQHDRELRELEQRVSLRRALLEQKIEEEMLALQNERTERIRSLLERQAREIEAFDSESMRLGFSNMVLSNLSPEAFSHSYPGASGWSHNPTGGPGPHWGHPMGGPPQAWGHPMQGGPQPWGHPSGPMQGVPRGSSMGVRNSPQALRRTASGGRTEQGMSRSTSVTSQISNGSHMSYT

[16] = biological target: Cyclin-dependent kinase 8 (Homo sapiens, UniProt P49336); test: Navigating the Kinome. Panel member name: CDK8; assay type: functional
[17] = biological target: Casein kinase I isoform alpha (Homo sapiens, UniProt P48729); assay type: functional
Sequence of Casein kinase I isoform alpha (P48729 whole entry, canonical isoform): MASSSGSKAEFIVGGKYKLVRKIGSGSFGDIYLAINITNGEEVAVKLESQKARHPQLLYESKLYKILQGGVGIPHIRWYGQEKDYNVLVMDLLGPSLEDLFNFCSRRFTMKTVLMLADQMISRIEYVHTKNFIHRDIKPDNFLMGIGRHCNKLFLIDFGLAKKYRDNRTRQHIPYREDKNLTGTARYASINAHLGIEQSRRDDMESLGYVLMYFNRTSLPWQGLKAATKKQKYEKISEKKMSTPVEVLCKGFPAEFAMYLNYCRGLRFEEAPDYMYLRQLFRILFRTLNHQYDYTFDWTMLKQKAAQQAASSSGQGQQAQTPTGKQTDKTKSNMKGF

[18] = biological target: Melanin-concentrating hormone receptor 1 (Homo sapiens, UniProt Q99705); test: Late-stage fluorescence-based counterscreen for antagonists of the G-protein coupled receptor 7 (GPR7): cell-based dose response assay to identify antagonists of the melanin-concentrating hormone receptor 1 (MCHR1) Set 6.; assay type: functional
[19] = biological target: Neuropeptides B/W receptor type 1 (Homo sapiens, UniProt P48145); test: GPR7 antagonist potency, late-stage follow-up, cell-based, fluorescence, dose response, set 6 (AID 588583); assay type: functional
Sequence of Neuropeptides B/W receptor type 1 (P48145 whole entry): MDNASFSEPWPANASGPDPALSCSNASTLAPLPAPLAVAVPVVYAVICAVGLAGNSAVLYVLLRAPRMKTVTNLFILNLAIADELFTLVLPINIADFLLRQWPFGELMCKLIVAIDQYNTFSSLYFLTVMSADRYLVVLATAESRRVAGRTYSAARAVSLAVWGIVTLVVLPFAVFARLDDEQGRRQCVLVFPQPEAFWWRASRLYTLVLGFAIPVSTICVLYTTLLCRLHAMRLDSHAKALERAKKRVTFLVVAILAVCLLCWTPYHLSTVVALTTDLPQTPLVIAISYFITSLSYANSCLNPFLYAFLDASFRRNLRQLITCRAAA

[20] = biological target: DNA dC->dU-editing enzyme APOBEC-3A (Homo sapiens, UniProt P31941); test: SAR analysis of small molecule inhibitors of APOBEC3A DNA Deaminase via a fluorescence-based single-stranded DNA deaminase assay.; assay type: functional; settings: read-out: IC50_Mean
Sequence of DNA dC->dU-editing enzyme APOBEC-3A (P31941 whole entry): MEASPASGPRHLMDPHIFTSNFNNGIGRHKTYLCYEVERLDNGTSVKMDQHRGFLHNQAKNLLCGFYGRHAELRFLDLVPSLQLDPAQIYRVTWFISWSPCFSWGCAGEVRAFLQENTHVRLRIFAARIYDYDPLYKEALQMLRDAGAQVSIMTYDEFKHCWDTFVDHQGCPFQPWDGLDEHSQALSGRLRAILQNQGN

[21] = biological target: DNA dC->dU-editing enzyme APOBEC-3G (Homo sapiens, UniProt Q9HC16); test: APOBEC3G deaminase inhibitors, SAR follow-up, biochemical, fluorescence, single-stranded DNA substrate (AID 602136); assay type: functional; settings: read-out: IC50_Mean
Sequence of DNA dC->dU-editing enzyme APOBEC-3G (Q9HC16 whole entry): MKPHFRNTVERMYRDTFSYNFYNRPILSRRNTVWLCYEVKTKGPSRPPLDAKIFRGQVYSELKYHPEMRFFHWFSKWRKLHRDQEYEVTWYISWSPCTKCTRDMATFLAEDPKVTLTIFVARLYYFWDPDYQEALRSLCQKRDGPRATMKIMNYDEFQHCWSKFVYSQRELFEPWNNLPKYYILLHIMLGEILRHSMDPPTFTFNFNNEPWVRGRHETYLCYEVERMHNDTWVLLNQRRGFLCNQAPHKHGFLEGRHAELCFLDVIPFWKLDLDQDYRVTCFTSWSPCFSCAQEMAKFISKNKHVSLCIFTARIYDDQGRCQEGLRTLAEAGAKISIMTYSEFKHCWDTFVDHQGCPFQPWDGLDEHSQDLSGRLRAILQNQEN

[22] = biological target: Cyclin-dependent kinase 19 (Homo sapiens, UniProt Q9BWU1); test: Navigating the Kinome. Panel member name: CDC2L6; assay type: functional
Sequence of Cyclin-dependent kinase 19 (Q9BWU1 whole entry): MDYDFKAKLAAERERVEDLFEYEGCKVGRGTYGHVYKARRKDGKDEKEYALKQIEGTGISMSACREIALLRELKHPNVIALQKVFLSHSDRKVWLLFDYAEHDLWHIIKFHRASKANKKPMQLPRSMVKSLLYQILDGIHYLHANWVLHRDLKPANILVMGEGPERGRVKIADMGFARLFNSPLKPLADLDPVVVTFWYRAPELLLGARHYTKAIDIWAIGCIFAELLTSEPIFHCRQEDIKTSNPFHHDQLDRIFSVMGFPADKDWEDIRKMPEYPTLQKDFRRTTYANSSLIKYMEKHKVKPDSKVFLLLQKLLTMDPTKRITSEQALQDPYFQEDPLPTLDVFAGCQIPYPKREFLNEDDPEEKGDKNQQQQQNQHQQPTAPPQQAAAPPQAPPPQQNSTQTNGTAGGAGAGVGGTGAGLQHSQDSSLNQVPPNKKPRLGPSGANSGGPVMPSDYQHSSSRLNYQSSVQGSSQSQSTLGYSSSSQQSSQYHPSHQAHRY

[23] = biological target: Cell division cycle 7-related protein kinase (Homo sapiens, UniProt O00311); assay type: functional;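 also: value obtained from a kinome-wide kinase panel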
Insulin-degrading enzyme [24] = biological target: T5, Insulin-degrading enzyme (Homo sapiens, UniProt P14735); test: activators of endogenous IDE in HEK cells, dose response, cell-based, fluorescence polarization (AID 588439); assay type: functional
T5 sequence (P14735 whole entry): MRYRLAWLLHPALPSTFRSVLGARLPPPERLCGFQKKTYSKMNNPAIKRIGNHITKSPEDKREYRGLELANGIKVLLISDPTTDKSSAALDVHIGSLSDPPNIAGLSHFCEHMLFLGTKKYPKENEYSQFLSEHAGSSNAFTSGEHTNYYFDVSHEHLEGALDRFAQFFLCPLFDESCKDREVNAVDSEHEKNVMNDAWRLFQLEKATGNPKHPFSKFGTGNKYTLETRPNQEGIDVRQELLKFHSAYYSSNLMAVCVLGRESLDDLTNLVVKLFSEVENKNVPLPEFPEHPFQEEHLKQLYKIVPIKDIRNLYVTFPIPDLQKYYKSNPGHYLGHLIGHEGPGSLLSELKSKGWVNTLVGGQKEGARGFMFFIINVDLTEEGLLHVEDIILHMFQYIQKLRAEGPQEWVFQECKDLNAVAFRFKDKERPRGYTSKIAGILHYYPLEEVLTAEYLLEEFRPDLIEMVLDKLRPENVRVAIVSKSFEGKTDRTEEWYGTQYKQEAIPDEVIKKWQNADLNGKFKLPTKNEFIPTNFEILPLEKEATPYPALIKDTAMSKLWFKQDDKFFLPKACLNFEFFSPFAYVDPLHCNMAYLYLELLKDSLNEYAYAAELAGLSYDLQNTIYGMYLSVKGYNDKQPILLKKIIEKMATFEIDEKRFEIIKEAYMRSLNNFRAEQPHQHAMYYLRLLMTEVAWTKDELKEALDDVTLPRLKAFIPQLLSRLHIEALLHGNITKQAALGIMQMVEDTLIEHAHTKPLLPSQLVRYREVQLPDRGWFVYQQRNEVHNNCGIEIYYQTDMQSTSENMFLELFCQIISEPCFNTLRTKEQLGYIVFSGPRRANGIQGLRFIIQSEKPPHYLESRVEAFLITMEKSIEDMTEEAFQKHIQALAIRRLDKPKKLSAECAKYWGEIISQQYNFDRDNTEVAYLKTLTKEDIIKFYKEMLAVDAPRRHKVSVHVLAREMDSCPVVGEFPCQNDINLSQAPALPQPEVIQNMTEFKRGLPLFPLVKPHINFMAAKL

Insulin-degrading enzyme [25] = biological target: T5, Insulin-degrading enzyme; test: activators of recombinant IDE enzyme, dose response, counter-screen for IDE activator project, biochemical, fluorescence polarization (AID 588681)
HEK293 [26] = test: optical interference in Abeta FP readout, dose response, artefact control for IDE activator project, biochemical, fluorescence polarization (AID 588442); assay type: functional, cell-based; settings: Homo sapiens
HEK293 [27] = test: HEK cell cytotoxicity by LDH release, dose response, cytotoxicity control for IDE activator project, fluorescence, HEK cells (AID 588440); assay type: functional, cell-based; settings: Homo sapiens;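 also: cytotoxicity by LDH release measuring loss of membrane integrity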

## CSc1cccc(NC(=O)C2CCCN2S(=O)(=O)c2ccc(Br)s2)c1 (stereo not drawn)
CHO-K1
  IC50: > 66.2 µM (inactive)
Orexin receptor type 2 [1]
  IC50: 0.34 µM (active)
Orexin receptor type 2 [2]
  IC50: 0.4 µM (active)
[3]
  IC50: 0.0933 µM (active)
[4]
  IC50: 0.8 µM (active)
[5]
  IC50: 27.8 µM (inactive)

## Cc1ccc2c(c1)/C(=C1\C(=O)Nc3ccccc31)C(=O)N2C
[6]
  CC50: 12.9 µM (active)
[7]
  CC50: 4.55 µM (active)
[8]
  CC50: 16.3 µM (active)
cells
  IC50: 1.89 µM (active)
[9]
  CC50: 13.4 µM (active)
[10]
  AC50: 12.1 µM (active)
[11]
  CC50: 4.76 µM (active)
[12]
  CC50: 27 µM (active)
[13]
  AC50: 8.85 µM (active)

## COc1ccccc1N1C(=O)C2C(C(=O)c3ccccc3)=NN(c3ccccc3)C2C1=O (stereo not drawn)
Caspase-7
  EC50: > 85.3 µM (inactive)
Beta Lactamase
  IC50: 9.37 µM (active)
CHO
  IC50: > 49.8 µM (inactive)
Caspase-3
  EC50: > 85.3 µM (inactive)

## CC(C)(C)c1cc(NC(=O)C(=O)c2cccc3ccccc23)n(-c2ccc(OCCC(N)=O)cc2)n1
[14]
  Ki: 1.58 µM (active)
[15]
  Ki: > 6.31 µM (inactive)
[16]
  Ki: 2 µM (active)
[17]
  Ki: 3.98 µM (active)

## CC(C)(C)OC(=O)C(C#N)c1c(Cl)cnn(Cc2cccc3ccccc23)c1=O (stereo not drawn)
[18]
  IC50: 0.682 µM (active)
[19]
  IC50: 0.682 µM (active)

## COc1cc2c(c3oc(=O)c4c(c13)CCC4)C=CC(C)(C)O2
[20]
  IC50: > 99 µM (inactive)
[21]
  IC50: > 99 µM (inactive)

## O=C(O)c1ccccc1Nc1ccnc(NCc2ccccc2)n1
[22]
  Ki: > 100 µM (inactive)
[23]
  Ki: 0.0501 µM (active)

## Cc1ccc(S(=O)(=O)/N=C/c2cc(Br)ccc2O)cc1
Insulin-degrading enzyme [24]
  EC50: > 54.7 µM (inactive)
Insulin-degrading enzyme [25]
  EC50: > 54.7 µM (inactive)
HEK293 [26]
  EC50: > 54.7 µM (inactive)
HEK293 [27]
  IC50: > 89.1 µM (inactive)
